Measurements published in patent US20100105723A1, “5-PHENYL-6-PYRIDIN-4-YL-1,3-DIHYDRO-2H-IMIDAZO[4,5-b]PYRIDIN-2-ONE DERIVATIVES USEFUL AS A2B ADENOSINE RECEPTOR ANTAGONISTS” (priority 2006, published 2010).

How the values were obtained:
human A3 receptor = target: T1, human A3 receptor (Homo sapiens, UniProt P0DMS8); experiment: A3 radioligand filtration binding assay (3H-NECA); settings: for inhibition at 1 µM: at indicated concentration (1000 nM), read-out: % inhibition of radioligand binding at indicated concentration, hA3; for Ki: membranes from HeLa cells transfected with human A3 receptor, read-out: Ki hA3
T1 construct: expressed in transfected cells; host or cells: HeLa
T1 sequence (P0DMS8 1-318): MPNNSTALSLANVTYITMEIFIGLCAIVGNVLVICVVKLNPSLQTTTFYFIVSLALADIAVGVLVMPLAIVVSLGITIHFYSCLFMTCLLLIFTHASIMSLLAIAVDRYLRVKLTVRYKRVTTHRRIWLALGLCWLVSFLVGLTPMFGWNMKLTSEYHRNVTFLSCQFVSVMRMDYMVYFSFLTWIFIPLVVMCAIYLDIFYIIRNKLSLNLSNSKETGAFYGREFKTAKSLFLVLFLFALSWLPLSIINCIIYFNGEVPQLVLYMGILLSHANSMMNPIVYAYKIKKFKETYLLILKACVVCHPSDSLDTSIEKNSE
Procedure: For A3 receptors, in filtration binding assay, 30 nM ^3H-NECA, […] unlabelled R-PIA, […] membranes from HeLa cells transfected with human A3 receptor, incubated 3 h. at room temperature in TrisHCl 50 mM pH 7.4, EDTA 1 mM, MgCl2 5 mM, 2 U/ml adenosin deaminase.

human A2A receptor = target: T2, human A2A receptor (Homo sapiens, UniProt P29274); experiment: A2A radioligand SPA binding assay (3H-ZM241385); settings: for Ki: membranes from HeLa cells transfected with human A2A receptor, mean of at least two independent determinations, read-out: Ki hA2A
T2 construct: expressed in transfected cells; host or cells: HeLa
T2 sequence (P29274 whole entry): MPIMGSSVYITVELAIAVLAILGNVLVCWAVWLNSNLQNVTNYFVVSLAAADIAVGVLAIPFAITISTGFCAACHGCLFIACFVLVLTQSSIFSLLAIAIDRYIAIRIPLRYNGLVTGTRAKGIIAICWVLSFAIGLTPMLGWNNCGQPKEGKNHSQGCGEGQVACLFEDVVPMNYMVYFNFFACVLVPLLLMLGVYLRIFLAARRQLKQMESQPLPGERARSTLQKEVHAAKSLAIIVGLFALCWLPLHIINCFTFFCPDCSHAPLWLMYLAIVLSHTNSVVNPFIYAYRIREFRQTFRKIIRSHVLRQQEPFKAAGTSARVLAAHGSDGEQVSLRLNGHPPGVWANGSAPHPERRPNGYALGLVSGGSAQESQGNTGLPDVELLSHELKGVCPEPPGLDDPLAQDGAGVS
Procedure: For A2A receptors binding technology was SPA (Amhersham) with 3,3 nM ^3H-ZM241385, […] unlabelled NECA, membranes from HeLa cells transfected with human A2A receptor, incubated 1 h. at room temperature with 1 mg YSi-WGA beads in TrisHCl 50 mM pH 7.4, EDTA 1 mM, MgCl2 10 mM, 2 U/ml adenosin deaminase.

human A2B receptor = target: T3, human A2B receptor (Homo sapiens, UniProt P29275); experiment: A2B radioligand filtration binding assay ([3H]-DPCPX competition); settings: membranes from HEK293 cells expressing human A2B receptor; mean of at least two independent determinations; read-out: Ki hA2B
T3 construct: host or cells: HEK293
T3 sequence (P29275 1-332): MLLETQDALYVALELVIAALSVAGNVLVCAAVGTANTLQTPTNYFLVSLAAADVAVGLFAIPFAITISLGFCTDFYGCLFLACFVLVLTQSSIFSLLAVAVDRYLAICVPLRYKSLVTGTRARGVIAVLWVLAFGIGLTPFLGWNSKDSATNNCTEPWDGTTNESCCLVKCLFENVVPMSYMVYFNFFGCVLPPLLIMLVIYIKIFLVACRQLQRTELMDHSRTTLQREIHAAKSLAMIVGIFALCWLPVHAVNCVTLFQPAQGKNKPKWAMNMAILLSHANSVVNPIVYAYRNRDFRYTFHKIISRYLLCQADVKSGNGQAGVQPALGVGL
Procedure: For A2B, competition assays were carried out in filtration binding assay, incubating in polypropylene 96 well-plates (n^o 267245, NUNC) containing 2 μL of either 1% DMSO solution, test compound or 100 μM 5′NECA (SIGMA E-2387) for non-specific binding, 100 μg of A2B-membranes prepared from HEK293 cells stably expressing the human A2B receptor (Euroscreen ES-013-C) and 35 nM [^3H]-DPCPX (TRK1064, 128 Ci/mmol, Amersham), in a total volume of 200 μl of buffer A+2 Ul/ml adenosine deaminase, for 60 minutes at room temperature.

human A1 receptor = target: T4, human A1 receptor (Homo sapiens, UniProt P30542); experiment: A1 radioligand filtration binding assay (3H-DPCPX); settings: membranes from CHO cells transfected with human A1 receptor; mean of at least two independent determinations; read-out: Ki hA1
T4 construct: host or cells: CHO
T4 sequence (P30542 1-326): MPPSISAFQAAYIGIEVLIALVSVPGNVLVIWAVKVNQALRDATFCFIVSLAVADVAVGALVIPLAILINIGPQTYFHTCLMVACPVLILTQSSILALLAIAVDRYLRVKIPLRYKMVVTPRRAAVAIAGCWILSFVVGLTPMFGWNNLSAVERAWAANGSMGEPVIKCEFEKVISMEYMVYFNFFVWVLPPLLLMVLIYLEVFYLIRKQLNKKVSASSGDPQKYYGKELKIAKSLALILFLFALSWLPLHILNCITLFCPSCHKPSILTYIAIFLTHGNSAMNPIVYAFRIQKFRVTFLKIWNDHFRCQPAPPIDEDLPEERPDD
Procedure: For A1 receptors a filtration binding assay was performed with 2 nM ^3H-DPCPX, […] unlabelled R-PIA, membranes from CHO cells transfected with human A1 receptor (Euroscreen ES-010-C) and incubated 90 min. at room temperature in Hepes 20 mM pH 7.4, NaCl 100 mM, MgCl2 10 mM and 2 U/ml adenosin deaminase.

SMILES	inhibition at 1 µM (human A3 receptor)	Ki (human A3 receptor)	Ki (human A2A receptor)	Ki (human A2B receptor)	Ki (human A1 receptor)	inhibition at 2.5 µM (human A2A receptor; at indicated concentration (2500 nM), read-out: % inhibition of radioligand binding at indicated concentration, hA2A)
O=c1[nH]c2cc(-c3ccncc3F)c(-c3ccccc3F)nc2[nH]1 [Example 1, 5-(2-Fluorophenyl)-6-(3-fluoropyridin-4-yl)-1,3-dihydro-2H-imidazo[4,5-b]pyridin-2-one]	19%	> 1000 nM	721 nM	0.9 nM	35 nM	–
O=c1[nH]c2cc(-c3ccncc3Cl)c(-c3ccccc3F)nc2[nH]1 [Example 2, 6-(3-Chloropyridin-4-yl)-5-(2-fluorophenyl)-1,3-dihydro-2H-imidazo[4,5-b]pyridin-2-one]	22%	> 1000 nM	449 nM	1.8 nM	76 nM	–
O=c1[nH]c2cc(-c3c(F)cncc3F)c(-c3ccccc3F)nc2[nH]1 [Example 3, 6-(3,5-Difluoropyridin-4-yl)-5-(2-fluorophenyl)-1,3-dihydro-2H-imidazo[4,5-b]pyridin-2-one]	18%	> 1000 nM	> 2500 nM	1.1 nM	632 nM	6%
